Consider one compound from PMC3981761, “A New Assay for Determining Ganglioside Sialyltransferase Activities Lactosylceramide-2,3-Sialyltransferase (SAT I) and Monosialylganglioside-2,3-Sialyltransferase (SAT IV)” (PLoS ONE, 2014).

The test system of this experiment is T1, recombinant α2,3-(O)-sialyltransferase (EC 2.4.99.4), rat liver.
T1 construct: gene St3gal2; recombinant commercial enzyme (EMD Bioscience), originating from rat liver
The experiment can be described thus: HPLC with fluorescence detection of BODIPY-GD1a formed. The conditions noted are these: BODIPY-GM1 constant at 13 μM, pH 6, Mes, Triton, 37°C, 1 h; donor substrate. The class given is biochemical.

Structures are written as SMILES.

Take `CC(=O)N[C@H]1[C@H]([C@H](O)[C@H](O)CO)O[C@](OP(=O)(O)OC[C@H]2O[C@@H](n3ccc(N)nc3=O)[C@H](O)[C@@H]2O)(C(=O)O)C[C@@H]1O` [CMP-NeuAc]: the Km (as a rule, the substrate concentration at which the rate is half of its maximum) is 23.4 ± 0.1 µM.
